Measured values as given in ChEMBL document CHEMBL1201862, “PubChem BioAssay data set” (2004).
Values joined by “and” are separate entries in the source; they are usually repeats but may differ in a detail not shown here. Equal values may be shown once.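 Cells were grown in 96-well plates and exposed to each compound for 48 hours at five concentrations; endpoints were interpolated linearly between bracketing concentrations, or set to the highest concentration if not reached. At the GI50, growth is halved.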 Active and inactive are the calls of the source. Cut-off read from the data, not from the text of the source: active = GI50 up to about 1.1 µM and inactive = higher.

Key:
Assay in all cases: growth of human tumour cells (NCI), 48 h
HL-60 = tested on: HL-60
A549 = tested on: A549
OVCAR-3 = tested on: OVCAR-3
HCT-15 = tested on: HCT-15
UACC-257 = tested on: UACC-257
786-0 = tested on: 786-0
HT-29 = tested on: HT-29
HCT-116 = tested on: HCT-116
ACHN = tested on: ACHN
M14 = tested on: M14
SNB-75 = tested on: SNB-75
HOP-62 = tested on: HOP-62
SF-268 = tested on: SF-268
NCI-H226 = tested on: NCI-H226
OVCAR-5 = tested on: OVCAR-5
CCRF-CEM = tested on: CCRF-CEM
LOX IMVI = tested on: LOX IMVI
Malme-3M = tested on: Malme-3M
OVCAR-8 = tested on: OVCAR-8

Compound | GI50 (HL-60) | GI50 (A549) | GI50 (OVCAR-3) | GI50 (HCT-15) | GI50 (UACC-257) | GI50 (786-0) | GI50 (HT-29) | GI50 (HCT-116) | GI50 (ACHN) | GI50 (M14) | GI50 (SNB-75) | GI50 (HOP-62) | GI50 (SF-268) | GI50 (NCI-H226) | GI50 (OVCAR-5) | GI50 (CCRF-CEM) | GI50 (LOX IMVI) | GI50 (Malme-3M) | GI50 (OVCAR-8)
COc1ccc(OC(C)C(=O)O)c2c1CCCC2=O (stereo not drawn) | > 100 µM (inactive) | > 100 µM (inactive) | > 100 µM (inactive) | > 100 µM | > 100 µM (inactive) | > 100 µM (inactive) | > 100 µM (inactive) | > 100 µM (inactive) | > 100 µM (inactive) | > 100 µM (inactive) | > 100 µM (inactive) | > 100 µM (inactive) | > 100 µM (inactive) | > 100 µM (inactive) | > 100 µM (inactive) | > 100 µM (inactive) | > 100 µM (inactive) | > 100 µM (inactive) | > 100 µM (inactive)
COc1ccc(-c2c(C3=NCCCN3)nnn2-c2ccc([N+](=O)[O-])cc2)cc1 | > 100 µM (inactive) | > 100 µM (inactive) | > 100 µM (inactive) | > 100 µM | > 100 µM (inactive) | > 100 µM (inactive) | > 100 µM (inactive) | > 100 µM (inactive) | > 100 µM (inactive) | > 100 µM (inactive) | > 100 µM (inactive) | > 100 µM (inactive) | > 100 µM (inactive) | > 100 µM (inactive) | > 100 µM (inactive) | > 100 µM (inactive) | > 100 µM (inactive) | > 100 µM (inactive) | > 100 µM (inactive)
COc1cc(/C=C/C(=O)c2cccc3ccccc23)cc(OC)c1OC | 1.72 µM (inactive) | 8.18 µM (inactive) | 12.8 µM (inactive) | – | 6.37 µM (inactive) | 4.49 µM (inactive) | 4.27 µM (inactive) | 3.82 µM (inactive) | 12 µM (inactive) | 5.93 µM (inactive) | 10.3 µM (inactive) | 6.82 µM (inactive) | 4.74 µM (inactive) | 15.3 µM (inactive) | 14.2 µM (inactive) | 2.56 µM (inactive) | 3.03 µM (inactive) | 11.4 µM (inactive) | 1.98 µM (inactive)
O=[N+]([O-])c1ccc(-n2nnc(C3=NCCN3)c2-c2ccc(Cl)cc2)cc1 | > 100 µM (inactive) | > 100 µM (inactive) | > 100 µM (inactive) | > 100 µM | > 100 µM (inactive) | > 100 µM (inactive) | 66.8 µM (inactive) | 55.8 µM (inactive) | > 100 µM (inactive) | > 100 µM (inactive) | 83.6 µM (inactive) | > 100 µM (inactive) | 73.3 µM (inactive) | > 100 µM (inactive) | > 100 µM (inactive) | > 100 µM (inactive) | > 100 µM (inactive) | > 100 µM (inactive) | > 100 µM (inactive)
COC1(OC)C2(Cl)C3=CCCC=C3C1(Cl)C(Cl)=C2Cl | 13.9 µM (inactive) | 27.2 µM (inactive) | 17.4 µM (inactive) | 27.5 µM | 28.4 µM (inactive) | 27.4 µM (inactive) | 20.6 µM (inactive) | 17.1 µM (inactive) | 28 µM (inactive) | 13.2 µM (inactive) | 23.3 µM (inactive) | 26.3 µM (inactive) | 27.4 µM (inactive) | 45.7 µM (inactive) | 23.7 µM (inactive) | 19.8 µM (inactive) | 15.3 µM (inactive) | 16.7 µM (inactive) | 32.2 µM (inactive)
CCCCCCC(=O)CC(=O)C(=O)Nc1ccccc1C | > 100 µM (inactive) | > 100 µM (inactive) | > 100 µM (inactive) | > 44.4 µM | > 100 µM (inactive) | > 55.5 µM (inactive) | > 100 µM (inactive) | > 100 µM (inactive) | > 100 µM (inactive) | > 100 µM (inactive) | > 100 µM (inactive) | > 100 µM (inactive) | > 65.6 µM (inactive) | > 100 µM (inactive) | > 100 µM (inactive) | > 100 µM (inactive) | > 43 µM (inactive) | > 100 µM (inactive) | > 100 µM (inactive)
Cc1sc(C)c2c1C(=O)CC2N (stereo not drawn) | 6.64 µM (inactive) | 29.3 µM (inactive) | 17.5 µM (inactive) | 31.3 µM | 17.5 µM (inactive) | 7.98 µM (inactive) | 24.9 µM (inactive) | 14.5 µM (inactive) | 16.8 µM (inactive) | 14.1 µM (inactive) | > 50.1 µM (inactive) | > 85.5 µM (inactive) | > 40.9 µM (inactive) | > 37.8 µM (inactive) | > 100 µM (inactive) | 1.04 µM (active) | 13.1 µM (inactive) | 13.7 µM (inactive) | 21.5 µM (inactive)
CN(C)/C(=N/C(=S)Nc1ccccc1)SCc1ccccc1 | 18.2 µM (inactive) | 32 µM (inactive) | 56.8 µM (inactive) | 57.5 µM | 36.6 µM (inactive) | 56.1 µM (inactive) | 3.88 µM (inactive) | – | 45 µM (inactive) | 67.8 µM (inactive) | 30.3 µM (inactive) | 71.6 µM (inactive) | 48.3 µM (inactive) | 36.1 µM (inactive) | > 100 µM (inactive) | 11.7 µM (inactive) | 42 µM (inactive) | 40.2 µM (inactive) | 56.4 µM (inactive)
OCC1C(/C=C/c2ccoc2)ON2CCCC12 (stereo not drawn) | > 100 µM (inactive) | > 100 µM (inactive) | – | – | > 100 µM (inactive) | > 100 µM (inactive) | > 100 µM (inactive) | – | > 100 µM (inactive) | > 100 µM (inactive) | > 100 µM (inactive) | > 100 µM (inactive) | > 100 µM (inactive) | > 100 µM (inactive) | > 100 µM (inactive) | – | > 100 µM (inactive) | 20.8 µM (inactive) | > 100 µM (inactive)
CC1=NN(C(=O)CC(=O)Nc2cccc(Cl)c2)C(=O)C1/N=N/c1ccc(S(N)(=O)=O)cc1 (stereo not drawn) | – | > 100 µM (inactive) | > 100 µM (inactive) | > 100 µM | > 100 µM (inactive) | > 100 µM (inactive) | > 100 µM (inactive) | > 100 µM (inactive) | > 100 µM (inactive) | > 100 µM (inactive) | > 100 µM (inactive) | > 100 µM (inactive) | > 100 µM (inactive) | > 100 µM (inactive) | > 100 µM (inactive) | – | > 100 µM (inactive) | > 100 µM (inactive) | > 100 µM (inactive)
COc1cc(/C=C2\C(=O)N(C(=O)c3ccc(NC(C)=O)cc3)N=C2C)ccc1O | > 100 µM (inactive) | > 100 µM (inactive) | > 100 µM (inactive) | – | > 100 µM (inactive) | > 100 µM (inactive) | > 100 µM (inactive) | > 100 µM (inactive) | > 100 µM (inactive) | > 100 µM (inactive) | > 100 µM (inactive) | > 100 µM (inactive) | > 100 µM (inactive) | > 100 µM (inactive) | > 100 µM (inactive) | > 100 µM (inactive) | > 100 µM (inactive) | > 100 µM (inactive) | > 100 µM (inactive)
CCN(CC)CCCn1cnc2ncccc2c1=O | – | > 100 µM (inactive) | > 100 µM (inactive) | – | – | > 100 µM (inactive) | > 100 µM (inactive) | > 100 µM (inactive) | > 100 µM (inactive) | > 100 µM (inactive) | > 100 µM (inactive) | > 100 µM (inactive) | > 100 µM (inactive) | > 100 µM (inactive) | > 100 µM (inactive) | > 100 µM (inactive) | > 100 µM (inactive) | > 100 µM (inactive) | > 100 µM (inactive)
CCOc1ccccc1/N=N/c1c(-c2ccccc2)nn(C(=O)CC(=O)Nc2cccc(C)c2)c1-c1ccccc1 | > 100 µM (inactive) | > 100 µM (inactive) | > 100 µM (inactive) | – | > 100 µM (inactive) | > 100 µM (inactive) | 39.6 µM (inactive) | > 100 µM (inactive) | 54.3 µM (inactive) | > 100 µM (inactive) | 27.4 µM (inactive) | > 100 µM (inactive) | 74.8 µM (inactive) | > 100 µM (inactive) | > 100 µM (inactive) | > 100 µM (inactive) | > 100 µM (inactive) | > 100 µM (inactive) | > 100 µM (inactive)
COc1ccc(C(=O)CC(=O)C(=O)Nc2ccc(C)c(C)c2)cc1 | 10.5 µM (inactive) | > 91.8 µM (inactive) | > 100 µM (inactive) | 31.3 µM | > 100 µM (inactive) | > 69 µM (inactive) | > 100 µM (inactive) | 43.8 µM (inactive) | > 100 µM (inactive) | > 100 µM (inactive) | 11.3 µM (inactive) | > 90.8 µM (inactive) | 56.2 µM (inactive) | > 100 µM (inactive) | – | 26.5 µM (inactive) | 23.7 µM (inactive) | > 100 µM (inactive) | > 100 µM (inactive)
CC(C)=CCSC1CC2C(CC1(C)O)C2(C)C (stereo not drawn) | – | 11.6 µM (inactive) and 16.6 µM (inactive) | 17.1 µM (inactive) and 11.4 µM (inactive) | 17.3 µM and 16.1 µM | – | 15.9 µM (inactive) and 13.1 µM (inactive) | 15.7 µM (inactive) and 14.9 µM (inactive) | 15.3 µM (inactive) and 17.1 µM (inactive) | 17.2 µM (inactive) and 17.5 µM (inactive) | 17.7 µM (inactive) and 14.7 µM (inactive) | 15.8 µM (inactive) and 11.5 µM (inactive) | 16.4 µM (inactive) and 16.6 µM (inactive) | 18.3 µM (inactive) and 16.3 µM (inactive) | 13.7 µM (inactive) and 14.4 µM (inactive) | 14.9 µM (inactive) and 16.5 µM (inactive) | – | 16.2 µM (inactive) and 15.1 µM (inactive) | 17.3 µM (inactive) and 16.4 µM (inactive) | 16.6 µM (inactive) and 14.1 µM (inactive)
